US20230116114A1, “COMPOUNDS AND COMPOSITIONS FOR TREATING CNS DISORDERS” (Blue Oak Pharmaceuticals, Inc., priority 2020, published 2023)
Where a name gives a salt, the structure may show the parent alone.

Tested on: mice
Test: SmartCube in vivo neuropharmacological behavioral assay
Conditions: for minimal effective dose: Mus musculus, ip, 0.25 h, dose having 50% or more total activity in SmartCube, i.p., read-out: MED (minimal effective dose); for AD: antidepressant (percent probability) / AG: analgesic (percent probability) / AP: antipsychotic (percent probability) / AX: anxiolytic (percent probability) / CE: cognitive enhancer (percent probability) / HA: hallucinogenic (percent probability) / MS: mood stabilizer (percent probability) / PS (percent probability) / SD: sedative hypnotic (percent probability) / SE: side effects (percent probability) / UN: uncharacterized CNS activity (percent probability) / XG: anxiogenic (percent probability): SmartCube, i.p. 15 min before test, result at the MED
In short: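 Mice dosed i.p. in NMP (Pharmasolve) 15 min before automated video behavioral testing at several doses (e.g., 0.3-30 mpk). Signatures compared to reference drug classes giving per-class probabilities (0-100); MED is the lowest dose with ≥50% total activity.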

Row | SMILES | minimal effective dose [mg/kg] | AD: antidepressant (percent probability) | AG: analgesic (percent probability) | AP: antipsychotic (percent probability) | AX: anxiolytic (percent probability) | CE: cognitive enhancer (percent probability) | HA: hallucinogenic (percent probability) | MS: mood stabilizer (percent probability) | PS (percent probability) | SD: sedative hypnotic (percent probability) | SE: side effects (percent probability) | UN: uncharacterized CNS activity (percent probability) | XG: anxiogenic (percent probability)
1 | c1ccc(CCN2C3CCCC2c2ccccc23)cc1 [Compound 5, 12-(2-Phenylethyl)-12-azatricyclo[6.3.1.0^2,7]dodeca-2,4,6-triene] | 10 to 30 | ++ (5% ≤ X < 25%) | + (LOQ ≤ X < 5%) | ++ (5% ≤ X < 25%) | ++ (5% ≤ X < 25%) | + (LOQ ≤ X < 5%) | + (LOQ ≤ X < 5%) | + (LOQ ≤ X < 5%) | + (LOQ ≤ X < 5%) | + (LOQ ≤ X < 5%) | + (LOQ ≤ X < 5%) | +++ (25% ≤ X < 50%) | + (LOQ ≤ X < 5%)
2 | FCC(CF)N1C2CCCC1c1ccccc12 [Compound 14, 12-(1,3-Difluoropropan-2-yl)-12-azatricyclo[6.3.1.0^20.7]dodeca-2,4,6-triene hydrochloride] | 10 to 30 | ++ (5% ≤ X < 25%) | +++ (25% ≤ X < 50%) | + (LOQ ≤ X < 5%) | ++ (5% ≤ X < 25%) | + (LOQ ≤ X < 5%) | + (LOQ ≤ X < 5%) | + (LOQ ≤ X < 5%) | + (LOQ ≤ X < 5%) | + (LOQ ≤ X < 5%) | + (LOQ ≤ X < 5%) | + (LOQ ≤ X < 5%) | + (LOQ ≤ X < 5%)
3 | CCCN1C2CCCC1c1ccccc12 [Compound 7, 12-Propyl-12-azatricyclo[6.3.1.0^2,7]dodeca-2,4,6-triene hydrochloride] | 10 to 30 | ++ (5% ≤ X < 25%) | +++ (25% ≤ X < 50%) | + (LOQ ≤ X < 5%) | ++ (5% ≤ X < 25%) | + (LOQ ≤ X < 5%) | + (LOQ ≤ X < 5%) | + (LOQ ≤ X < 5%) | ++ (5% ≤ X < 25%) | + (LOQ ≤ X < 5%) | + (LOQ ≤ X < 5%) | + (LOQ ≤ X < 5%) | + (LOQ ≤ X < 5%)
4 | CO[C@@H]1CC[C@H]2c3ccccc3[C@@H]1N2C(C)C (stereo in doubt) [Compound 34, 9-Methoxy-12-(propan-2-yl)-12-azatricyclo[6.3.1.0^2,7]dodeca-2,4,6-triene hydrochloride] | 10 to 30 | ++ (5% ≤ X < 25%) | + (LOQ ≤ X < 5%) | + (LOQ ≤ X < 5%) | ++ (5% ≤ X < 25%) | + (LOQ ≤ X < 5%) | + (LOQ ≤ X < 5%) | + (LOQ ≤ X < 5%) | + (LOQ ≤ X < 5%) | + (LOQ ≤ X < 5%) | + (LOQ ≤ X < 5%) | ++ (5% ≤ X < 25%) | + (LOQ ≤ X < 5%)
5 | CC1CC2NC(C1)c1ccccc12 (centres unmarked) [Compound 29, 10-Methyl-12-azatricyclo[6.3.1.0^2,7]dodeca-2,4,6-triene hydrochloride] | 1 to 10 | ++ (5% ≤ X < 25%) | ++ (5% ≤ X < 25%) | + (LOQ ≤ X < 5%) | +++ (25% ≤ X < 50%) | + (LOQ ≤ X < 5%) | + (LOQ ≤ X < 5%) | + (LOQ ≤ X < 5%) | + (LOQ ≤ X < 5%) | + (LOQ ≤ X < 5%) | + (LOQ ≤ X < 5%) | + (LOQ ≤ X < 5%) | + (LOQ ≤ X < 5%)
6 | CC([C@@H](C)F)N1C2CCCC1c1ccccc12 (stereo in doubt) [Compound 23, 12-(3-Fluorobutan-2-yl)-12-azatricyclo[6.3.1.0^2,7]dodeca-2,4,6-triene hydrochloride] | > 30 | + (LOQ ≤ X < 5%) | + (LOQ ≤ X < 5%) | + (LOQ ≤ X < 5%) | + (LOQ ≤ X < 5%) | + (LOQ ≤ X < 5%) | + (LOQ ≤ X < 5%) | + (LOQ ≤ X < 5%) | + (LOQ ≤ X < 5%) | + (LOQ ≤ X < 5%) | + (LOQ ≤ X < 5%) | ++ (5% ≤ X < 25%) | + (LOQ ≤ X < 5%)
7 | CC(C)N1[C@@H]2C[C@@H](C)C[C@H]1c1ccccc12 [Compound 31, 10-Methyl-12-(propan-2-yl)-12-azatricyclo[6.3.1.0^2,7]dodeca-2,4,6-triene hydrochloride] | 1 to 10 | ++++ (50% ≤ X < 100%) | + (LOQ ≤ X < 5%) | + (LOQ ≤ X < 5%) | + (LOQ ≤ X < 5%) | + (LOQ ≤ X < 5%) | ++ (5% ≤ X < 25%) | + (LOQ ≤ X < 5%) | ++ (5% ≤ X < 25%) | + (LOQ ≤ X < 5%) | + (LOQ ≤ X < 5%) | + (LOQ ≤ X < 5%) | + (LOQ ≤ X < 5%)
8 | CC(C)N1C2CC[C@H](C)C1c1ccccc12 (stereo in doubt) [Compound 33, 9-Methyl-12-(propan-2-yl)-12-azatricyclo[6.3.1.0^2,7]dodeca-2,4,6-triene hydrochloride] | 1 to 10 | ++++ (50% ≤ X < 100%) | + (LOQ ≤ X < 5%) | + (LOQ ≤ X < 5%) | + (LOQ ≤ X < 5%) | + (LOQ ≤ X < 5%) | + (LOQ ≤ X < 5%) | + (LOQ ≤ X < 5%) | + (LOQ ≤ X < 5%) | + (LOQ ≤ X < 5%) | + (LOQ ≤ X < 5%) | + (LOQ ≤ X < 5%) | + (LOQ ≤ X < 5%)
